# Assay results published in ChEMBL document CHEMBL3507680, “University of Dundee, Gates Library screen for HepG2 cell viability”.
# Test: Human HepG2 cell viability assay in 384 well format
# Assay type: toxicity, cell-based
# Design: dose 125 nL, time 70.5 hour; cytotoxicity at 70.5 h: concentration not given beside the values
# Details: HepG2 cells, read-out: Inhibition
row,Compound,cytotoxicity at 70.5 h [%]
1,O=S(=O)(CCCN1CCCCC1Cn1cncn1)c1ccccc1 (centres undefined),-4.13
2,Cc1ccc(CN(C)C(=O)CN2CCOC(Cn3cccn3)C2)o1 (centres undefined),-3.39
3,NC(=O)CN1CCC(NC(=O)COc2ccc(Cl)c(Cl)c2)CC1,-2.35
4,CS(=O)(=O)N1CCC(NC(=O)COc2ccc3ccccc3c2)CC1,-1.61
5,O=C(CCOc1ccc(Br)cc1)N1CCN(c2cnccn2)CC1,24.8
6,Cc1cc(C(=O)NCC(C)N2CCc3ccccc32)on1 (centres undefined),7.49
7,CC(C)NC(=O)Nc1ccc(CNCc2ccc(OC(F)F)cc2)cc1,13.8
8,CCOc1ncccc1NC(=O)NC1CCN(c2ncccn2)CC1,2.59
9,COC(=O)c1cccn1C1CCN(S(=O)(=O)c2ccccc2)CC1,3.76
10,O=C(CCOc1cccc(Cl)c1)N1CCN(c2cnccn2)CC1,22
11,CC(CNC(=O)c1cc(C2CC2)on1)N1CCc2ccccc21 (centres undefined),2.16
12,CCOC(=O)N1CCC(NC(=O)Nc2cccnc2OCC)CC1,6.34
13,CCOc1ncccc1NC(=O)NC1CCN(C(=O)C2CC2)CC1,3.99
14,CCOc1ncccc1NC(=O)NC1CCCN(S(C)(=O)=O)C1 (centres undefined),-0.949
15,CN(Cc1ccsc1)C(=O)CN1CCOC(Cn2cncn2)C1 (centres undefined),-1.49
16,Cc1cnn(CC2CCCN2C(=O)c2c(F)cccc2Cl)c1 (centres undefined),0.266
17,COc1c(C2CCCN2C(=O)c2cccnc2N(C)C)c(C)nn1C (centres undefined),0.616
18,COC(=O)c1cccn1C1CCN(CCN2C(=O)CCC2=O)CC1,-5.66
19,O=S(=O)(CCN1CCCC1Cn1cncn1)c1ccccc1 (centres undefined),-1.96
20,CN(CC(=O)N1CCCCC1c1nccs1)C1CC1 (centres undefined),28.5
21,Cc1nn(Cc2ccccc2)c(C)c1CNC1CCc2ncnn2C1 (centres undefined),0.852

row,Compound,cytotoxicity at 70.5 h [%]
1,Cc1nn(C)c(C)c1C1CCCN1Cc1nc2ccccc2o1 (centres undefined),-4.38
2,c1ccc(-n2cc(CNC3CCc4ncnn4C3)cn2)cc1 (centres undefined),-4.52
3,Clc1ccccc1Cn1cc(CNC2CCc3ncnn3C2)cn1 (centres undefined),-0.86
4,CCc1nccn1C1CCCN(C(=O)CCCc2ccccn2)C1 (centres undefined),-2.48
5,CC(=O)N(Cc1noc(C)n1)C1CCN(Cc2ccccn2)C1 (centres undefined),-8.37
6,O=C(Cc1cn2ccccc2n1)N1CCCC(n2ccnc2)C1 (centres undefined),-3.99
7,O=C(NCc1nnc2n1CCCCC2)N1CCc2ccccc2C1,1.11
8,O=C(NCc1nnc2n1CCC2)N1CCc2sccc2C1,-6.3
9,O=C(NCc1nnc2n1CCCC2)N1CCc2sccc2C1,-4.27
10,COc1c(CNCc2cccc(C(=O)N(C)C)c2)c(C)nn1C,5.09
11,CC(NC(=O)NCCc1ccc(Cl)s1)c1ccccn1 (centres undefined),-2.15
12,COc1c(CNCc2ccc(S(C)(=O)=O)cc2)c(C)nn1C,0.0381
13,CC(C)c1nccn1C1CCCN(C(=O)c2cc(C(N)=O)cs2)C1 (centres undefined),2.06
14,NS(=O)(=O)c1cc(C(=O)N2CCCC(n3ccnc3)C2)cs1 (centres undefined),-3.09
15,Cc1ccc(CNc2cc(N3CCCC3CO)ncn2)s1 (centres undefined),-0.592
16,Cc1nc(C)n(C2CCCN(C(=O)Cc3cn4ccccc4n3)C2)n1 (centres undefined),1.25
17,Cc1c(C(=O)N2CCCC(n3cncn3)C2)cnn1C (centres undefined),3.32
18,CC(C)(C)c1n[nH]c(C2CN(CCc3cccs3)CCO2)n1 (centres undefined),3.37
19,CC(=O)N(Cc1noc(C)n1)C1CCN(Cc2c(C)noc2C)C1 (centres undefined),-0.736
20,CCc1nccn1C1CCCN(C(=O)Cc2cn3ccsc3n2)C1 (centres undefined),-11.7
21,CN(C)CCC1CCN(Cc2ccn(C)c(=O)c2)CC1,-4.16

row,Compound,cytotoxicity at 70.5 h [%]
1,O=C(NCc1csc(Br)c1)c1cnccn1,-13.5
2,CNS(=O)(=O)c1cccc(CNC(=O)c2cc(C)no2)c1,15.5
3,CCc1ccc(C(=O)NCc2cccc(S(=O)(=O)NC)c2)o1,-0.952
4,Cc1ccc(F)c(S(=O)(=O)NCc2cccc(C(=O)N3CCCC3)c2)c1,16.3
5,Cn1ccc(CN2CCC(Cc3ccccc3)CC2)cc1=O,0.151
6,Cn1ccc(CN2CCC(CC(=O)N3CCCC3)CC2)cc1=O,-6.85
7,Cc1cnn(C2CCCN(C(=O)CCCOc3ccccc3F)C2)c1 (centres undefined),-5.78
8,Cc1cnn(C2CCCN(C(=O)c3cn(-c4ccccc4)nn3)C2)c1 (centres undefined),-6.41
9,COc1ccc(F)cc1CN1CCCC1Cn1nc(C)nc1C (centres undefined),-1.67
10,Cc1cnn(CC2CCCN2C(=O)c2ccc3[nH]c(=O)[nH]c3c2)c1 (centres undefined),-1.55
11,Cc1cc(C)n(CC2CCCN2C(=O)c2cnc3n[nH]c(C)c3c2)n1 (centres undefined),1.22
12,Cc1nc(C2CCCN(C(=O)c3cnn(C4CCCCC4)c3)C2)no1 (centres undefined),-1.22
13,Cc1ccc(N2CCCC(NCc3cc(C)on3)C2)nn1 (centres undefined),-3.47
14,O=C(COC1CCCCC1)N1CCCC(n2ccnc2)C1 (centres undefined),-6.58
15,O=C(CCOc1cccc(F)c1)N1CCCC(n2cccn2)C1 (centres undefined),-2.03
16,O=C(COc1ccccc1Cl)N1CCCC(n2ccnc2)C1 (centres undefined),-2.83
17,CSCCC(=O)N1CCCC(n2ccnc2)C1 (centres undefined),-6.36
18,O=C(COCCOc1ccccc1)N1CCCC(n2ccnc2)C1 (centres undefined),-4.49
19,Cc1cnn(CC2CCCCN2Cc2nccn2CC(F)(F)F)c1 (centres undefined),4.47
20,CCc1n[nH]c(C2CN(C(=O)c3ccnc(N(C)C)c3)CCO2)n1 (centres undefined),20.1
21,Cc1cc(C2CCCN(C(=O)c3ccc(C)[nH]c3=O)C2)n[nH]1 (centres undefined),-13.9

row,Compound,cytotoxicity at 70.5 h [%]
1,Cc1noc(C(C)C)c1C(=O)NCCN1CCCCCC1=O,-19
2,Cc1nc(C)c(C(=O)NCCNc2ncccc2C#N)s1,-7.46
3,Cn1ccc(C(=O)NCc2cccc(CN3CCCC3)c2)cc1=O,-3.99
4,CCN1CCN(C(=O)NCCOc2ccc3c(c2)OCO3)CC1,-11.4
5,CC(O)(CN1CCC2(CC1)OCCO2)c1cccc(C(F)(F)F)c1 (centres undefined),-4.13
6,COc1ccc(C)cc1CC(=O)N1CCN(CC(C)O)CC1 (centres undefined),-5.05
7,Cn1ccc(C(=O)NCc2cccc(NC(=O)C3CCC3)c2)cc1=O,-13.3
8,CC(C)OCCN(C)C(C)c1cccc(S(N)(=O)=O)c1 (centres undefined),22.5
9,Cn1cc(-c2nc(CN3CCc4c(ncn4C4CC4)C3)cs2)cn1,-15.2
10,c1ccc(CCNC2CCc3ncnn3C2)nc1 (centres undefined),3.59
11,CC(C)c1nc(CN(C)C2CCN(CCNS(C)(=O)=O)C2)no1 (centres undefined),32.3
12,Cc1ccc(OCCC(=O)N2CCN(c3cnccn3)CC2)cc1C,-4.94
13,O=C(CCOc1ccc(Cl)cc1)N1CCN(c2cnccn2)CC1,-11.5
14,CC(C)c1cc(NC(=O)CN2CCC(N3CCCCC3)CC2)on1,-1.37
15,CCOc1ncccc1NC(=O)NC1CCCN(c2ncccn2)C1 (centres undefined),-2.86
16,CCn1cc(NC(=O)NCc2ccc(CN3CCOCC3)cc2)cn1,-6.5
17,OC(COc1ccc(F)cc1)CN1CCC(Cn2cccn2)CC1 (centres undefined),10.3
18,CN(Cc1ccsc1)C(=O)CN1CCOC(Cn2cccn2)C1 (centres undefined),29
19,NC(=O)c1cc(NC(=O)NCCc2cc(F)cc(F)c2)ccc1F,10.2
20,Cc1ccc(-c2cc(CN3CCCC(Cn4cncn4)C3)on2)cc1 (centres undefined),27.6
21,Cc1cccc(CNC2CCCc3c2cnn3C)c1 (centres undefined),-6.91
